According to US7482468B2, “Imidazole and benzimidazole derivatives useful as histamine H3 antagonists” (Schering Corporation, priority 2005, dated 2009):

Biological target: H3 receptors (Cavia porcellus, UniProt Q9JI35)
Experiment: biochemical
Procedure: General Procedure for H3-Receptor Binding Assay
The source of the H3 receptors in this experiment was guinea pig brain. The animals weighed 400-600 g. The brain tissue was homogenized with a solution of 50 mM Tris, pH 7.5. The final concentration of tissue in the homogenization buffer was 10% w/v. The homogenates were centrifuged at 1,000×g for 10 min. in order to remove clumps of tissue and debris. The resulting supernatants were then centrifuged at 50,000×g for 20 min. in order to sediment the membranes, which were next washed three times in homogenization buffer (50,000×g for 20 min. each). The membranes were frozen and stored at −70° C. until needed.
All compounds to be tested were dissolved in DMSO and then diluted into the binding buffer (50 mM Tris, pH 7.5) such that the final concentration was 2 μg/ml with 0.1% DMSO. Membranes were then added (400 μg of protein) to the reaction tubes. The reaction was started by the addition of 3 nM [^3H]R-α-methyl histamine (8.8 Ci/mmol) or 3 nM [^3H]N^α-methyl histamine (80 Ci/mmol) and continued under incubation at 30° C. for 30 min. Bound ligand was separated from unbound ligand by filtration, and the amount of radioactive ligand bound to the membranes was quantitated by liquid scintillation spectrometry.

H3 receptors, sequence (Q9JI35 whole entry): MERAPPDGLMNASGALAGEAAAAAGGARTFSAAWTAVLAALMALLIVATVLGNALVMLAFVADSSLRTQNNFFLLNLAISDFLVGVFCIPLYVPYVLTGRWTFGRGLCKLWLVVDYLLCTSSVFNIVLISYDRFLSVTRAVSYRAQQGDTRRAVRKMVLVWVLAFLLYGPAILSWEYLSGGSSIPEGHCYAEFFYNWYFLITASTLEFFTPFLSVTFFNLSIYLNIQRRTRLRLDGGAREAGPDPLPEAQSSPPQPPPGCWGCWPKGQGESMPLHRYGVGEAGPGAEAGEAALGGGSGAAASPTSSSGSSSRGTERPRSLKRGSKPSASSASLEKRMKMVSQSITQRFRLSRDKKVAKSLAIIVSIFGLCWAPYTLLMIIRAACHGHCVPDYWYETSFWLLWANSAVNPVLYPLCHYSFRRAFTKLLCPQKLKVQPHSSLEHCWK

- Ki: 1 nM
SMILES: Fc1ccc2c(c1)nc(-c1ccccn1)n2-c1ccc(OCCCN2CCCCC2)cc1 [Example 1EE]
